Data published in publication PMC3510080, “Identification of Compounds with Anti-Proliferative Activity against Trypanosoma brucei brucei Strain 427 by a Whole Cell Viability Based HTS Campaign” (PLoS Neglected Tropical Diseases, 2012).

Columns and labels:
P. falciparum K1 strain = test: P. falciparum 3H-hypoxanthine incorporation assay; SI versus L6 cells; format: cell-based, Plasmodium falciparum; conditions: for IC50: Plasmodium falciparum, K1, L6, read-out: Compound activity P.F (IC50); for Selectivity Index P.F: relative to L6 cells
Procedure: L6 rat skeletal myoblasts, [29] were purchased from the American Type Culture Collection (ATCC, Rockville, MD, USA; ATCC number CRL 1458). This cell line was used for cytotoxicity testing to calculate an SI against T.b. rhodesiense and screened alongside the T.b. rhodesiense, P. falciparum, T. cruzi and L. donovani assays. L6 were also the host cells for the T. cruzi assay. Assays were performed in 96-well microtiter plates, each well containing 100 µl of RPMI 1640 medium supplemented with 1% L-glutamine (200 mM), 10% FCS, and 4000 L6 cells. Serial drug dilutions of eleven 3-fold dilution steps covering a range from 100 to 0.002 µg/ml were prepared. After 70 hours of incubation the plates were inspected under an inverted microscope to assure growth of the controls and sterile conditions. Ten µl of resazurin solution (resazurin, 12.5 mg in 100 ml double-distilled water) was then added to each well and the plates incubated for another 2 hours. Then the plates were read with a Spectramax Gemini XS microplate fluorometer (Molecular Devices Cooperation, Sunnyvale, CA, USA) using an excitation wavelength of 536 nm and an emission wavelength of 588 nm. Data was analysed using the microplate reader software Softmax Pro (Molecular Devices, USA). Podophyllotoxin was used as a positive control in the assay.
Compounds dissolved in DMSO at 10 mg/ml were added to parasite cultures incubated in RPMI 1640 medium without hypoxanthine, supplemented with HEPES (5.94 g/l), NaHCO3 (2.1 g/l), neomycin (100 U/ml), Albumax (5 g/l) and washed human A^+ red blood cells at 2.5% haematocrit (0.3% parasitaemia). Serial drug dilutions of eleven 3-fold dilution steps covering a range from 100 to 0.002 µg/ml were prepared. The 96-well plates were incubated in a humidified atmosphere at 37°C; 4% CO2, 3% O2, 93% N2. After 48 hours, 50 µl of ^3H-hypoxanthine ( = 0.5 µCi) was added to each well of the plate. The plates were incubated for a further 24 hours under the same conditions. The plates were then harvested with a Betaplate cell harvester (Wallac, Zurich, Switzerland), and the red blood cells transferred onto a glass fibre filter then washed with distilled water. The dried filters were inserted into a plastic foil with 10 ml of scintillation fluid, and counted in a Betaplate liquid scintillation counter (Wallac, Zurich, Switzerland). IC50 values were calculated from sigmoidal inhibition curves using Microsoft Excel.

mammalian cell lines = conditions: cited from earlier work

Row | Compound | IC50 (P. falciparum K1 strain) [µM] | Selectivity Index P.F (P. falciparum K1 strain) | activity reported for some mammalian cell lines (mammalian cell lines)
1 | CC(C)(C)C(=O)NCCc1csc(-c2cccc(F)c2)n1 [Compound 1] | 35.4 ± 2.75 | 1.76 | –
2 | O=C(NCCc1n[nH]c(-c2ccc(F)cc2)n1)c1cccc(F)c1 [Compound 2] | 23.9 ± 8.48 | 5.00 | –
3 | CCOc1ccc(OCc2ccc(C(=O)N3CCCC(C)C3)cc2)cc1 (stereo not shown) [Compound 3] | 14.3 ± 6.64 | 3.48 | –
4 | Cc1cc(O)nc(-n2nc(C)cc2NC(=O)C2CCCC2)n1 [Compound 4] | 8.17 ± 4 | 0.110 | –
5 | CCS(=O)(=O)N1CCCc2ccc(NS(=O)(=O)c3ccccc3F)cc21 [Compound 5] | 12.6 ± 5.87 | 1.72 | –
6 | CCC(C)NC(=O)c1nc(-c2ccccc2)cnc1N (stereo not shown) [Compound 6] | 11.3 ± 4.79 | 1.58 | –
7 | O=C(Nc1ccc(Cl)c(-c2nc3ncccc3o2)c1)c1ccco1 [Compound 7] | 7.76 ± 3.22 | – | –
8 | CCc1ccccc1N=C(NCCN1CCOCC1)NC(=O)c1ccccc1 [Compound 8] | 5.33 ± 2.04 | 24.8 | –
9 | N=C(N)c1ccc(OCCCCCOc2ccc(C(=N)N)cc2)cc1 [Pentamidine, pentamidine, reference compound] | – | – | low µM activity
